The values below come from patent US20240285497A1, “METHOD FOR EVALUATING AN ABILITY OF A TEST SAMPLE TO TRIGGER A FOREIGN BODY REACTION IN THE SKIN, A METHOD FOR SCREENING A SUBSTANCE HAVING AN ABILITY TO INHIBIT A FOREIGN BODY REACTION IN THE SKIN, AND AN AGENT FOR INHIBITING A FOREIGN BODY REACTION IN THE SKIN” (priority 2021, published 2024).

Test [1] concerns matrix metalloprotease 9 mRNA. Description: MMP9 mRNA expression in HaCaT cells contacted with FICZ, quantitative PCR. It is filed as cell-based, human. To be noted: 24 hours. The method, then: First, HaCaT cells (CLI; Catalogue No.: 300493) were suspended in a DMEM medium at the density of 1×10^5 cell/mL, and 100 μL of the thus obtained suspension was added to each well of white 96 well plates (Thermo Fisher Scientific, MA, U.S.A.; Catalogue No.: 136102) so that the number of the cells in each well was 10,000 cells/well. In accordance with a conventional method, the cells were incubated at 37° C. for 24 hours in the presence of 5% CO2. Thereafter, the DMEM medium was removed, and 100 μL of a new DMEM medium containing FICZ at a predetermined concentration (i.e., 5 nM, 50 nM, 500 nM, and 5,000 nM) was added, followed by further incubation for 24 hours at 37° C. and 5% CO2. Meanwhile, negative controls were prepared by adding 100 μL of a DMEM medium containing no FICZ instead of the DMEM medium containing FICZ, which were also incubated for 24 hours at 37° C. and 5% CO2. […]
Quantitative PCR was carried out by using THUNDERBIRD Next SYBR qPCR Mix (Toyobo Co., Ltd., Osaka, Japan; Catalogue No. QPX-201) and StepOne Real-Time PCR System (Thermo Fisher Scientific, MA, USA). […] The reaction solution was used for quantitative PCR. Based on Ct (cycle threshold) value obtained by quantitative PCR, an amount of mRNA of each target gene was obtained. […]

The subject of test [2] is TIMP-1 (Tissue Inhibitor of Matrix Metalloprotease-1) mRNA. The experiment in a line: TIMP-1 mRNA expression in HaCaT cells, quantitative PCR. The note with it: 100 μM, 24 hours. The test is classed as cell-based, human. The method, then:
Specifically, the mRNA expression of TIMP-1 in the HaCaT cells treated with Fraglide-1 was evaluated by performing quantitative PCR using cDNA obtained in Experiment 4-1. The procedure of quantitative PCR was the same as described in Experiment 4-1 except that the primers shown in below Table 5 were used.
In FIG. 14, the results obtained for each sample were shown in relative values normalized by setting the expression level of TIMP-1 in the HaCaT cells incubated for 24 hours in DMEM medium not containing Fraglide-1 (i.e., the non-treated HaCaT cells) as 1. The results shown in FIG. 14 are the mean of values obtained from three independent experiments, and the error bars represent standard deviation (SD).
On the other hand, as comparison, the similar evaluation was performed for retinoic acid and nicotinamide, which are known as active ingredients of anti-wrinkle agents, using cDNA obtained in Experiment 4-2. The procedure for quantitative PCR was the same as already described in Experiment 3-1, except that the primers shown in Table 5 were used.
In FIG. 15, the results obtained for each sample were shown in relative values normalized by setting the expression level of TIMP-1 in the HaCaT cells incubated for 24 hours in DMEM medium not containing either retinoic acid and nicotinic acid amide (i.e., the non-treated HaCaT cells) as 1. The results shown in FIG. 15 are the mean of values obtained from three independent experiments, and the error bars represent standard deviation (SD).

On to 6-formylindolo[3,2-b] carbazole [FICZ], for which the “concentration necessary to observe a significant increase in the expression level of MMP9 mRNA” value in test [1] is recorded as “about 5000 nM”. In test [1] (FICZ 5-5,000 nM), the “expression level of MMP9 mRNA, dependence on concentration” value is given as “increased along with the concentration of FICZ”.
As for `O=C1C=C(c2ccccc2)C(O)O1` (stereo not shown) [Fraglide-1, 5-hydroxy-4-phenyl-2(5H)butenolide], the “expression level of TIMP-1 compared to non-treated HaCaT cells” value in test [2] is given as “about 4 fold”. Moreover, the “expression level of TIMP-1 mRNA vs non-treated HaCaT cells (in words)” value in test [2] (Fraglide-1 1 μM, 10 μM, retinoic acid / nicotinic acid amide at predetermined concentrations) is reported as “concentration-dependent increase”.
